According to PubChem BioAssay AID248 (DTP/NCI, 2004):
Several values for one entry are separate records, joined by “and”; a condition that tells them apart may be missing. Equal entries are not always repeated. Toxic doses and inconclusive results are not listed. Rule as the data show it: active = T/C of 150% or more; inactive = T/C below 125%.

Tested on: L1210 leukemia ip in BDF1 mice, survival T/C
Assay: NCI In Vivo Anticancer Drug Screen. Data for tumor model L1210 Leukemia (intraperitoneal) in B6D2F1 (BDF1) mice
Conditions: endpoint: mean survival time, higher = longer survival
In short: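 Antitumor effect is assessed in tumor-bearing animals. Survival in the compound arm is compared with a vehicle-dosed control arm and expressed as their quotient.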

[1] = dose: 100.0 mg/kg/injection, schedule: Q01DX001 (ip), vehicle: saline
[2] = dose: 200.0 mg/kg/injection, schedule: Q01DX001 (ip), vehicle: saline
[3] = dose: 400.0 mg/kg/injection, schedule: Q01DX001 (ip), vehicle: saline
[4] = dose: 100.0 mg/kg/injection, schedule: Q01DX009 (ip), vehicle: Klucel (hydroxypropylcellulose) (HPC)
[5] = dose: 100.0 mg/kg/injection, schedule: Q04DX003 (ip), vehicle: saline with Tween-80
[6] = dose: 200.0 mg/kg/injection, schedule: Q04DX003 (ip), vehicle: saline with Tween-80
[7] = dose: 400.0 mg/kg/injection, schedule: Q04DX003 (ip), vehicle: saline with Tween-80
[8] = dose: 100.0 mg/kg/injection, schedule: Q01DX001 (ip), vehicle: carboxymethylcellulose (CMC)
[9] = dose: 200.0 mg/kg/injection, schedule: Q01DX001 (ip), vehicle: carboxymethylcellulose (CMC)
[10] = dose: 400.0 mg/kg/injection, schedule: Q01DX001 (ip), vehicle: carboxymethylcellulose (CMC)
[11] = dose: 200.0 mg/kg/injection, schedule: Q01DX009 (ip), vehicle: Klucel (hydroxypropylcellulose) (HPC)
[12] = dose: 400.0 mg/kg/injection, schedule: Q01DX009 (ip), vehicle: Klucel (hydroxypropylcellulose) (HPC)

Measured: T/C

CC(C)C(N)C(=O)OC(=O)C(N)CCCCN (stereo not drawn)
inactive: dose: 12.5 mg/kg/injection, schedule: Q04DX002 (ip), vehicle: saline 107 % of control | dose: 25.0 mg/kg/injection, schedule: Q04DX002 (ip), vehicle: saline 104 % of control | dose: 50.0 mg/kg/injection, schedule: Q04DX002 (ip), vehicle: saline 101 % of control | [1] 108 % of control | [2] 101 % of control | [3] 98 % of control

COc1ccc(OC)c(NC(=O)Sc2ccccc2O)c1
inactive: dose: 25.0 mg/kg/injection, schedule: Q01DX009 (ip), vehicle: Klucel (hydroxypropylcellulose) (HPC) 100 % of control | dose: 50.0 mg/kg/injection, schedule: Q01DX009 (ip), vehicle: Klucel (hydroxypropylcellulose) (HPC) 96 % of control | [4] 99 % of control and 89 % of control

c1ccc(N/N=C(\Oc2ccccc2)c2ccccc2)cc1
inactive: [5] 93 % of control | [6] 96 % of control | [7] 96 % of control

O=C(CCCc1ccc(N(CCCl)CCCl)cc1)OCc1ccccc1
inactive: dose: 100.0 mg/kg/injection, schedule: Q04DX002 (ip), vehicle: saline 121 % of control | dose: 200.0 mg/kg/injection, schedule: Q04DX002 (ip), vehicle: saline 108 % of control | dose: 400.0 mg/kg/injection, schedule: Q04DX002 (ip), vehicle: saline 121 % of control

Cc1ccc(NC(=O)C(c2ccc(Cl)cc2)c2ccc(Cl)cc2)cc1
inactive: dose: 100.0 mg/kg/injection, schedule: Q04DX002 (ip), vehicle: Klucel (hydroxypropylcellulose) (HPC) 96 % of control | dose: 200.0 mg/kg/injection, schedule: Q04DX002 (ip), vehicle: Klucel (hydroxypropylcellulose) (HPC) 100 % of control | dose: 400.0 mg/kg/injection, schedule: Q04DX002 (ip), vehicle: Klucel (hydroxypropylcellulose) (HPC) 96 % of control

CN(CCC(=O)c1ccccc1)C(C)(C)C
inactive: dose: 100.0 mg/kg/injection, schedule: Q04DX003 (ip), vehicle: saline 100 % of control

O=C(Nc1ccccc1)P(=O)(O)c1ccccc1
inactive: dose: 62.5 mg/kg/injection, schedule: Q01DX001 (ip), vehicle: Klucel (hydroxypropylcellulose) (HPC) 102 % of control | dose: 125.0 mg/kg/injection, schedule: Q01DX001 (ip), vehicle: Klucel (hydroxypropylcellulose) (HPC) 102 % of control | dose: 250.0 mg/kg/injection, schedule: Q01DX001 (ip), vehicle: Klucel (hydroxypropylcellulose) (HPC) 92 % of control

N#Cc1ccc(Cl)c2c1C(=O)c1ccccc1C2=O
inactive: [1] 98 % of control | dose: 100.0 mg/kg/injection, schedule: Q01DX009 (ip), vehicle: saline 100 % of control | [2] 98 % of control | dose: 200.0 mg/kg/injection, schedule: Q01DX009 (ip), vehicle: saline 94 % of control | [3] 95 % of control | dose: 400.0 mg/kg/injection, schedule: Q01DX009 (ip), vehicle: saline 92 % of control

CCCCCCCCCCCCCCc1sc(N)nc1-c1ccccc1
inactive: [1] 98 % of control | [2] 98 % of control | [3] 95 % of control

O=C(/C=C\c1ccccc1)OCCCCOC(=O)/C=C/c1ccccc1
inactive: dose: 50.0 mg/kg/injection, schedule: Q01DX001 (ip), vehicle: saline 103 % of control | [1] 101 % of control | [2] 91 % of control | [3] 97 % of control

Nc1cc(Cl)cc2c1-c1ccc(Cl)cc1/C2=N\O
inactive: [8] 100 % of control | [9] 97 % of control | [10] 97 % of control

NOCc1csc(N)n1
inactive: [1] 101 % of control | [2] 95 % of control | [3] 104 % of control

O=C(COc1ccc(Cl)c(Cl)c1)NCc1ccc[n+](Cc2cc(Cl)ccc2S(=O)(=O)F)c1
inactive: [5] 101 % of control | [6] 114 % of control | [7] 88 % of control

CC1CCC2C1C1C(CCC2(C)O)C1(C)C (stereo not drawn)
inactive: dose: 100.0 mg/kg/injection, schedule: Q01DX009 (ip), vehicle: other 90 % of control | dose: 100.0 mg/kg/injection, schedule: Q04DX003 (ip), vehicle: saline sonified 103 % of control | dose: 200.0 mg/kg/injection, schedule: Q01DX009 (ip), vehicle: other 95 % of control | dose: 200.0 mg/kg/injection, schedule: Q04DX003 (ip), vehicle: saline sonified 103 % of control | dose: 400.0 mg/kg/injection, schedule: Q01DX009 (ip), vehicle: other 98 % of control | dose: 400.0 mg/kg/injection, schedule: Q04DX003 (ip), vehicle: saline sonified 102 % of control

Cc1cccc(NC(=O)Nc2ccccc2)c1C
inactive: [4] 104 % of control | dose: 100.0 mg/kg/injection, schedule: Q04DX003 (ip), vehicle: Klucel (hydroxypropylcellulose) (HPC) 101 % of control | [11] 96 % of control | dose: 200.0 mg/kg/injection, schedule: Q04DX003 (ip), vehicle: Klucel (hydroxypropylcellulose) (HPC) 95 % of control | [12] 104 % of control | dose: 400.0 mg/kg/injection, schedule: Q04DX003 (ip), vehicle: Klucel (hydroxypropylcellulose) (HPC) 98 % of control

COc1ccc(/C=C/c2cnccn2)cc1OC
inactive: [4] 101 % of control | [11] 101 % of control | [12] 106 % of control

COc1c(Br)c(Br)c(Br)c(OC)c1OC
inactive: dose: 50.0 mg/kg/injection, schedule: Q01DX001 (ip), vehicle: carboxymethylcellulose (CMC) 98 % of control | [8] 101 % of control | [9] 106 % of control | [10] 98 % of control
